According to US4436799A, “Photographic products and processes employing novel nondiffusible magenta dye-releasing compounds and precursors thereof” (priority 1983, dated 1984):
Where “and” joins values, the source holds several entries; their conditions need not be identical. Equal values may be shown once.

Columns and labels:
Format in all cases: physicochemical
[1] = Dye diffusion, solution test; conditions: pH 13.4, 0.0025 M dye
Excerpt: (§1) The released dyes in Table I were also subjected to the conditions of two different dye diffusion tests. One, the "solution test" involved dissolving the dye in a viscous composition and transferring it through a receiving element which contains an opaque and reflecting layer in addition to the mordant layer. The other, a "gel pad test" involved imbibing the dye from solution into a thick gelatin layer, and then transferring it by direct lamination to the same receiving element which had been preswollen by soaking 5 minutes in a solution of […].
(§2) A transparent poly(ethylene terephthalate) film support coated with
(§3) (3) an overcoat layer of gelatin (4.3).
The viscous composition was prepared from 46.2 g potassium hydroxide and 54 g carboxymethylcellulose dissolved in 1200 ml water. […] Measurement of the rate of dye diffusion was commenced at the point at which half of the laminate had passed through the rollers. The appearance of dye on the mordant was measured at λmax as diffuse reflection density vs. time. The reflection density was converted to transmission density by computer with the aid of a mathematical relation derived from a previous calibration. A plot of transmission density, which is proportional to concentration vs. time, was derived; and the value of t-1/2 of dye transfer, the time in seconds required to obtain one-half of the maximum transmission density, calculated.

[2] = Comparative spectra on mordanted strips (Example 2); conditions: 2:1 nickel complex on mordanted strip; for HBW: band width at half Dmax; for λmax: wavelength(s) at actual Dmax
Excerpt: The absorption envelope of each of the metallized dyes is described by (1) the wavelength(s), λmax, at the actual Dmax, (2) the λ1/2 which is the mean of the wavelength limits of the absorption envelope at half the maximum density, and (3) the halfband width (HBW) which is the band width at half the Dmax. A narrow HBW generally designates a purer hue.

[3] = Dye diffusion, gel pad test; conditions: 0.1 M KOH, 1.3×10^-3 M dye
Excerpt: as §1, §2, §3
A donor element, containing a thick pad of deionized acid-processed gelatin (26 g/m^2) hardened with 2 percent bis(vinylsulfonylmethyl)ether, was imbibed with a solution of 0.1 M in potassium hydroxide and 1.3×10^-3 M in dye. The pad was soaked to full penetration, surface wiped, and then laminated in direct contact to the above receiving element which had been presoaked for 5 minutes at 0.1 M KOH. The t-1/2 of dye transfer was obtained as in the solution test.

[4] = Spectra of Ni-dye complexes in solution; conditions: 3:1 dioxane:water, pH 7, excess nickel ion; for Solution HBW of Ni-dye complex: half band width
Excerpt: The receiver was removed from the dye solution, washed in distilled water, placed in a pH 7.0 buffer solution and dried. Transmission spectra obtained on each sample of the mordanted dyes were normalized by computer to a density of 1.0. The characteristic wavelength of the dye, λ1/2 in nm, is the mean of the wavelength limits of the absorption envelope at half the maximum density. The HBW ("half band width") in nm is the range or distance between those limits. The dye solution spectrum in 3:1 dioxane:water at pH 7 in the presence of excess nickel ion is also given.

[5] = Light stability (percent fade after HID xenon arc irradiation); conditions: 10 days HID 6000 W xenon arc, 50,000 lux, Wratten 2B filter, approx. 38° C.
Excerpt: An alternative receiving element was used with the premetallized dye-complexes. It comprised a poly(ethylene terephthalate) film support having thereon a layer of gelatin (1.1 g/m^2) and a mordant layer of poly(styrene-co-1-vinylimidazole-co-3-benzyl-1-vinylimidazolium chloride (50:40:10) (4.5 g/m^2) and gelatin (2.2 g/m^2).
The above receiving elements at pH 7 were then subjected to 10 days irradiation by a high intensity daylight (HID), 6000 W Xenon arc lamp, the sample receiving 50,000 lux through a Wratten 2B (ultraviolet) filter at approximately 38° C. and low humidity. The percent fade represents the loss in density at λmax after irradiation.

[6] = Transmission spectra of Ni-dye complexes on mordanted receiving element (Example 1); conditions: pH 7.0 buffer
[7] = Extinction in solution with Ni2+ (synthesis examples); conditions: 3:1 dioxane-pH 6 buffer + excess Ni^2+
Experimental: To a solution of 5.5 g (12.1 mmol) Compound E in 200 ml tetrahydrofuran, 100 ml pyridine and 4.8 g (37.2 mmol) N,N-diisopropylethylamine was added 3.0 g (3.17 mmol) 3,6-bis(1-p-t-butylphenylethyl)-2,5-bis(N-n-dodecylchloroformamidomethyl)benzoquinone (see U.S. Pat. No. 4,204,870, Col. 31). After stirring for 1 hour, an additional 2.5 g (2.64 mmol) of the acid chloride is added and the reaction stirred 28 hours at room temperature. The crude reaction mixture was concentrated to ca. 100 ml in vacuo at 40° C. and the residue was partitioned between ethyl acetate and 3 N HCl. The layers were separated, the organic phase washed with 3 N HCl (until washings were acidic), water and saturated sodium chloride solution. After drying (MgSO4) the organic phase was evaporated in vacuo and the residue recrystallized twice from 350-400 ml ethanol. Yield 7.5 g (72 percent) of yellow solid: ε^550 =13.0×10^4 (3:1 dioxane-pH 6 buffer+excess Ni^2+).
A solution of 5.0 g (31.4 mmol) quinoline-5,8-quinone [T. Urbanski and S. Krzyzanowski, Roczniki Chem., 27, 390 (1953); Chem. Abstr., 49, 1041b (1955)] in 50 ml ethyl alcohol and 100 ml tetrahydrofuran was chilled to <5° C. Concentrated HCl (1 ml) and a cold slurry of 10.0 g (31.8 mmol) 3-chloro-5-(m-hydroxyphenylsulfamoyl)-7-pyridylhydrazine in 100 ml ethyl alcohol/0.5 ml concentrated HCl were added in that order. […]

[8] = premetallized compound, alternative receiving element
[9] = nickel sulfate/gelatin + poly(4-vinylpyridine)/gelatin mordant receiver, normalized to density 1.0

Molecule	Dye diffusion t1/2, Soln. [1] [s]	λ1/2 [2] [nm]	HBW [2] [nm]	λmax [2]	Dye diffusion t1/2, Gel Pad [3] [s]	Solution λ1/2 of Ni-dye complex [4] [nm]	Solution HBW of Ni-dye complex [4] [nm]	% Fade (loss in density at λmax) ([5]; low humidity, pH 7) [%]	Mordant HBW of Ni-dye complex [6, 9] [nm]	Mordant λ1/2 of Ni-dye complex [6, 9] [nm]	also measured
2:1 nickel complex of 2-(2-pyridylazo)-4-sulfamoyl-1-naphthol [Control Dye 1]	49	537	101	553 nm and 567 nm	281						
2:1 nickel complex of 6-(2-carboxy-4-chlorphenylazo)-2,3-pyridinediol [Control Dye 3]		545	86	555 nm							
NS(=O)(=O)c1cccc(NS(=O)(=O)c2cnc(N=Nc3ccc(O)c4cccnc34)c(Cl)c2)c1 [A]	41				183	548	70	2	76	553	Solution HBW of Ni-dye complex ([4]; listed as A'): 68 nm; Solution λ1/2 of Ni-dye complex ([4]; listed as A'): 545 nm; % Fade (loss in density at λmax) [5, 8]: 3%; Mordant HBW of Ni-dye complex [6, 8]: 85 nm; Mordant λ1/2 of Ni-dye complex [6, 8]: 555 nm; Dye diffusion t1/2, Gel Pad ([3]; listed as A'): 235 s
NS(=O)(=O)c1cnc(N=Nc2ccc(O)c3cccnc23)c(Cl)c1 [B]	31				108	543	65	0	67	545	Solution HBW of Ni-dye complex ([4]; listed as B'): 68 nm; Solution λ1/2 of Ni-dye complex ([4]; listed as B'): 544 nm; % Fade (loss in density at λmax) [5, 8]: 4%; Mordant HBW of Ni-dye complex [6, 8]: 71 nm; Mordant λ1/2 of Ni-dye complex [6, 8]: 546 nm; Dye diffusion t1/2, Gel Pad ([3]; listed as B'): 161 s
CCCCCCCCCCCCN(CC1=C(C(C)c2ccc(C(C)(C)C)cc2)C(=O)C(CN(CCCCCCCCCCCC)C(=O)Oc2cccc(NS(=O)(=O)c3cnc(N=Nc4ccc(O)c5cccnc45)c(Cl)c3)c2)=C(C(C)c2ccc(C(C)(C)C)cc2)C1=O)C(=O)Oc1cccc(NS(=O)(=O)c2cnc(N=Nc3ccc(O)c4cccnc34)c(Cl)c2)c1 (centres unmarked) [Compound 3]											ε^550 [7]: 13.0×10^4
COc1cc(S(=O)(=O)NC(C)(C)C)cnc1N=Nc1ccc(O)c2cccnc12 [Compound C]	37	545	67	560 nm		560	79		82	563	
CC(C)NS(=O)(=O)c1cnc(N=Nc2ccc(O)c3cccnc23)c(Cl)c1 [Compound D]	44					543	68		66	547	
CN(c1ccccc1)c1ccc(N=Nc2ccc(S(N)(=O)=O)cn2)c([O-])c1.CN(c1ccccc1)c1ccc(N=Nc2ccc(S(N)(=O)=O)cn2)c([O-])c1.[Ni+2] [Control Dye 2, 2:1 nickel complex of 2-(5-sulfamoyl-2-pyridylazo)-5-(N-methylanilino)phenol]	45	540	116	540 nm and 572 nm	265						
CN(c1cccc(O)c1)S(=O)(=O)c1cnc(N=Nc2ccc(O)c3cccnc23)c(Cl)c1 [F]	69					543	68	0	66	546	
O=S(=O)(Nc1ccccc1)c1cnc(N=Nc2ccc(O)c3cccnc23)c(Cl)c1 [G]	81					542	65	0	70	548	
CC(C)NS(=O)(=O)c1cnc(N=Nc2ccc(O)c3cc(C(=O)Nc4cccc(O)c4)c(Cl)nc23)c(Cl)c1 [H]	49					548	63	7	72	549	
COc1cc(S(=O)(=O)Nc2cccc(O)c2)cnc1N=Nc1ccc(O)c2cccnc12 [J]	40					559	78	0	87	568	
